USRE37781E1, “Substituted cyclic carbonyls and derivatives thereof useful as retroviral protease inhibitors” (DuPont Pharmaceuticals Company, priority 1991, dated 2002)
Read-outs that look alike come from different tables or passages of the source. Values belong to the molecule of their own block, whether it stands above or below them.

Experiments:
[1] = biological target: single-chain tethered dimer of HIV protease (Human immunodeficiency virus 1, UniProt P04585); test: biochemical; assay type: biochemical; design: fused on or other part: A second copy of the same protease unit is joined to the first by a short peptide tether, giving one polypeptide
Protocol: HIV Protease Inhibition Assay—HPLC Method
Active protease was prepared as described therein by extraction with 67% acetic acid, dilution 33-fold with water, dialysis against water and then against a “refolding buffer” consisting of 20 mM MES, 1 mM dithiothreitol and 10% glycerol. Protease was stored as a stock preparation at 10 uM in refolding buffer.
Substrate: Peptide of sequence: aminobenzoyl-Ala-Thr-His-Gln-Val-Tyr-Phe(NO2)-Val-Arg-Lys-Ala containing p-nitrophenylalanine, was prepared by solid phase synthesis as previously described Cheng et al., op.cit. Stock solutions of 2 mM substrate were prepared in DMSO.
Inhibitory compounds were dissolved in sufficient DMSO to make 3 mM stock solutions. All further dilutions were prepared in “assay buffer”: 1M NaCl, 50 mM MES, pH 5.5, 1 mM EDTA, 1 mM DTT, […] glycerol.
Enzyme reaction: In a 2 ml screw-cap centrifuge tube were added 50 ul protease (final concentration 0.25 nM) and 0.1 ml inhibitory compound (final concentration […]). After 15 min preincubation at room temperature, the reaction was started with the addition of 0.05 ml substrate (final concentration 5 uM). Incubation was carried out at 30 C. for 1 hr. The reaction was stopped with 1 ml 0.1M ammonium hydroxide.
HPLC measurement of product formation: The product (aminobenzoyl-Ala-Thr-His-Gln-Val-Tyr) was separated from substrate on a Pharmacia MonoQ anion exchange column. The injection volume was 0.2 ml. The mobile phases were: A (20 mM trisHCl, pH 9.0, 0.02% sodium Azide, 10% acetonitrile), B (20 mM tris HCl, pH 9.0, 0.02% sodium azide, 0.5M ammonium formate, 10% acetonitrile). The mobile phases were pumped at 1 ml/min, with a gradient from 0 to 30% B in 5 min, 100% B for 4 min to wash the column, and a re-equilibration for 4 min. The retention time of the product was 3.6 min. Detection with a Shimadzu model RF535 fluorescence monitor was at 330 nm (excitation) and 430 (emission).

HIV-1 (RF) in MT-2 cells = test: microbe, parasite or virus in culture; assay type: cell-based; conditions: Table 2d; HIV RNA assay
Protocol: DNA Plasmids and in vitro RNA transcripts:
Plasmid pDAB 72 containing both gag and pol sequences of BH10 (bp 113-1816) cloned into PTZ 19R was prepared according to Erickson-Viitanen et al. AIDS Research and Human Retroviruses 1989, 5, 577. The plasmid was linearized with Bam HI prior to the generation of in vitro RNA transcripts using the Riboprobe Gemini system II kit (Promega) with T7 RNA polymerase. Synthesized RNA was purified by treatment with RNase free DNAse (Promega), phenol-chloroform extraction, and ethanol precipitation. RNA transcripts were dissolved in water, and stored at −70° C. The concentration of RNA was determined from the A260.
Biotinylated capture probes were purified by HPLC after synthesis on an Applied Biosystems (Foster City, Calif.) DNA synthesizer by addition of biotin to the 5′ terminal end of the oligonucleotide, using the biotin-phosphoramidite reagent of Cocuzza, Tet. Lett. 1989, 30, 6287. The gag biotinylated capture probe (5-biotin-[…] 3′) was complementary to nucleotides 889-912 of HXB2 and the pol biotinylated capture probe (5′-biotin-[…] 3′) was complementary to nucleotides 2374-2395 of HXB2. Alkaline phosphatase conjugated oligonucleotides used as reporter probes were prepared by Syngene (San Diego, Calif.). The pol reporter probe (5′ […] 3′) was complementary to nucleotides 2403-2425 of HXB2. The gag reporter probe (5′ […] 3′) was complementary to nucleotides 950-973 of HXB2. All nucleotide positions are those of the GenBank Genetic Sequence Data Bank as accessed through the Genetics Computer Group Sequence Analysis Software Package (Devereau Nucleic Acids Research 1984, 12, 387). The reporter probes were prepared as 0.5μM stocks in 2× SSC (0.3M NaCl, 0.03M sodium citrate), 0.05M Tris pH 8.8, 1 mg/mL BSA. The biotinylated capture probes were prepared as 10 μM stocks in water.
Streptavidin coated plates:
Nunc-immunomodule microtiter plate strips were coated by addition of 200 μL of streptavidin (30 ug/mL, Scripps, La Jolla, Calif.) in freshly prepared 10 mM sodium carbonate (pH 9.6). Plates were incubated overnight at 4° C. Streptavidin solution was aspirated from the wells and a blocking buffer composed of phosphate buffered saline (PBS), 20 mg/mL bovine serum albumin (crystalline, nuclease and protease free, Calbiochem) and 100 mg/mL lactose (Sigma) was added to the plates for 3 hrs at room temperature. Blocking buffer was removed from the wells, which were allowed to dry overnight at room temperature and subsequently stored at 4° C. in zip lock bags with desiccant. For the majority of the compound evaluation experiments, streptavidin coated plates were obtained from Du Pont Biotechnology Systems (Boston, Mass.).
MT-2, CEM, and H9 cells were maintained in RPMI 1640 supplemented with 5% fetal calf serum (FCS), 2 mM L-glutamine and 50 μg/mL gentamycin, all from Gibco. Laboratory strains of HIV-1 (RF, MN and IIIB) were propagated in H9 cells in the same medium. Virus stocks were prepared approximately 1 month after acute infection of H9 cells by clarification of the tissue culture medium and storage of aliquots at −70° C. […] Each aliquot of virus stock used for infection was thawed only once. In some cases, infected H9 cells were shifted to Dulbecco's modified Eagle's medium 3-10 days before collection of virus in order to generate virus stocks in medium with low biotin content. Clinical isolates of HIV that had been passaged once in MT-2 cells were used to infect fresh MT-2 cells in RPMI medium. Three days after infection, cells were pelleted, resuspended and culture continued in Dulbecco's modified Eagle's medium as above. Virus stocks of clinical isolates were prepaid 10-15 days after infection when cytopathic effects were apparent in the culture.

[2] = Table 2d; HIV protease inhibition, HPLC method; read-out: HPLC K1
[3] = HIV protease inhibition, HPLC method; Table 2d; read-out: HPLC K1
[4] = read-out: HPLC K1; HIV protease inhibition, HPLC method; Table 2d
[5] = Table 2d; class symbols; read-out: HPLC K1

Compound: CN1CCN(CCCN2C(=O)NC(Cc3ccccc3)C(O)C(O)C2Cc2ccccc2)CC1 (centres unmarked) [15AP]
Ki [1, 2]: > 1000 nM

Compound: O=C1N(Cc2cccc(-c3nc4ccccc4[nH]3)c2)C(Cc2ccccc2)C(O)C(O)C(Cc2ccccc2)N1Cc1cccc(-c2nc3ccccc3[nH]2)c1 (centres unmarked) [15AX]
Ki [1, 2]: 10 to 1000 nM

Compound: Nc1ncc(-c2cccc(CN3C(=O)N(Cc4cccc(-c5ccnc(N)n5)c4)C(Cc4ccccc4)C(O)C(O)C3Cc3ccccc3)c2)cn1 (centres unmarked) [15BB]
Ki [1, 2]: 10 to 1000 nM

Compound: O=C1N(Cc2ccc3nnn(O)c3c2)C(Cc2ccccc2)C(O)C(O)C(Cc2ccccc2)N1Cc1ccc2nnn(O)c2c1 (centres unmarked) [15CU]
Ki [1, 2]: 10 to 1000 nM

Compound: CNc1noc2ccc(CN3C(=O)N(Cc4ccc5onc(NC)c5c4)C(Cc4ccccc4)C(O)C(O)C3Cc3ccccc3)cc12 (centres unmarked) [15DK]
Ki [1, 2]: < 10 nM

Compound: O=C1NC(Cc2ccccc2)C(O)C(O)C(Cc2ccccc2)N1Cc1ccc2[nH]nnc2c1 (centres unmarked) [15DM]
Ki [1, 2]: < 10 nM

IC90 (HIV-1 (RF) in MT-2 cells): +++ (+++=<10 μg/mL)
Compound: O=C1N(Cc2cccc(I)c2)C(Cc2ccccc2)C(O)C(O)C(Cc2ccccc2)N1Cc1ccc2[nH]nnc2c1 (centres unmarked) [15DT]

Compound: CC(CCCN1C(=O)N(CCCC(C)n2ccnc2)[C@H](Cc2ccccc2)[C@H](O)[C@@H](O)[C@H]1Cc1ccccc1)n1ccnc1 (some centres unmarked) [15FK]
Ki [1, 3]: > 1000 nM

Compound: O=C1N(CCCCCn2cccn2)C(Cc2ccccc2)C(O)C(O)C(Cc2ccccc2)N1CCCCCn1cccn1 (centres unmarked) [15FL]
Ki [1, 4]: > 1000 nM

Compound: O=C1N(CCCCCN2CCOCC2)C(Cc2ccccc2)C(O)C(O)C(Cc2ccccc2)N1CCCCCN1CCOCC1 (centres unmarked) [15FM]
Ki [1, 4]: > 1000 nM

Compound: O=C1N(Cc2ccc(CO)o2)C(Cc2ccccc2)C(O)C(O)C(Cc2ccccc2)N1Cc1ccc(CO)o1 (centres unmarked) [15FY]
Ki [1, 3]: 10 to 1000 nM

Compound: O=C(NC(Cc1ccccc1)C(=O)Nc1cccc(CN2C(=O)N(Cc3cccc(NC(=O)C(Cc4ccccc4)NC(=O)OCc4ccccc4)c3)C(Cc3ccccc3)C(O)C(O)C2Cc2ccccc2)c1)OCc1ccccc1 (centres unmarked) [15T]
Ki [1, 5]: < 10 nM

Compound: CC(N)C(=O)Nc1cccc(CN2C(=O)N(Cc3cccc(NC(=O)C(C)N)c3)C(Cc3ccccc3)C(O)C(O)C2Cc2ccccc2)c1 (centres unmarked) [15U]
Ki [1, 5]: < 10 nM

Compound: NC(Cc1ccccc1)C(=O)Nc1cccc(CN2C(=O)N(Cc3cccc(NC(=O)C(N)Cc4ccccc4)c3)C(Cc3ccccc3)C(O)C(O)C2Cc2ccccc2)c1 (centres unmarked) [15V]
Ki [1, 5]: < 10 nM

Compound: CN(C)CCNC(=O)c1cccc(CN2C(=O)N(Cc3cccc(C(=O)NCCN(C)C)c3)C(Cc3ccccc3)C(O)C(O)C2Cc2ccccc2)c1 (centres unmarked) [15XV]
Ki [1, 2]: < 10 nM

Compound: CN(C)CCNC(=O)c1cccc(CN2C(=O)N(Cc3cccc(C(=O)NCCN(C)C)c3)C(Cc3ccccc3)C(O)C(O)C2Cc2ccccc2)c1 (centres unmarked) [15XW]
IC90 (HIV-1 (RF) in MT-2 cells): ++ (++=10 to 100 μg/mL)

Compound: O=C(NCc1cccnc1)c1cccc(CN2C(=O)N(CC3CC3)C(Cc3ccccc3)C(O)C(O)C2Cc2ccccc2)c1 (centres unmarked) [15YD]
Ki [1, 2]: < 10 nM
